Consider 7 compounds from patent US20110003753A1, “COMPOSITIONS AND METHODS FOR DISRUPTING THE FUNCTION OF THE TRANSCRIPTIONAL REPRESSOR COMPONENT Sin3A-PAH2 DOMAIN TO INDUCE DIFFERENTIATION AND GROWTH INHIBITION IN BREAST CANCER” (SAMUEL WAXMAN CANCER RESEARCH FOUNDATION, priority 2009, published 2011).

The subject of assay [1] is MDA-MB-231 cells. Description: Three-dimensional morphogenesis assay in Matrigel. The class given is cell-based, human. The following applies: 5 μM peptide; Matrigel 3D culture; colonies counted after 10 days of treatment. As to the method:
FIG. 3: A. Morphogenesis in 3D cultures in Matrigel. MDA-MB-231 and MMTV-Myc cells expressing SID or the double mutant were cultured in 3D-Matrigel for 14 days. […] B. Reversion of the invasive phenotype of the MDA-MB-231 cells in Matrigel 3D cultures. Upper panel indicates change in numbers of invasive versus non invasive colonies (as indicated in crosshatched and non-crosshatched bars, respectively) in the presence of different concentrations (as indicated) of cell penetrating SID or SID^SCR (scrambled control) peptide. The colonies were counted after 10 days of treatment with a medium containing fresh peptide changed every 24 hours. […] The reduction in invasive phenotype was quantified by counting 5 low magnification fields per well done in triplicates (upper panel). The p value was calculated using the unpaired Student t test.
3D cultures of MDA-MB-231 and MMTV-Myc cells stably transfected with pEGFP-SID, pEGFP-SID2Mut or the parent vector pEGFP-N3 were prepared as described by Debnath et al. (Debnath et al2003). Briefly, […] of growth factor depleted Matrigel (BD Biosciences) was applied on 8-well multichamber slides (BD Biosciences) and incubated at 37° C. for 30 minutes. Once the Matrigel solidified 5×10^3 cells were seeded on top of the gels in assay medium containing 2% Matrigel and 20 ng/ml […]. Growth medium was changed daily for 14 days. Once colony formation was evident, the SID or the scramble control peptide was added to the MDA-MB-231 parental cells in the medium starting at day 3. The morphology of the colonies was determined by confocal microscopy. Induction of apoptosis was determined by staining colonies with activated caspase-3 antibody (BD Transduction Labs) and cell polarization by staining with anti-GM130 antibody (BD Transduction Labs). Cell nuclei were visualized by DAPI (Sigma) staining. […]

For assay [2], the system named is Sin3B and MAD. Description: Mammalian two-hybrid assay, GAL4 DBD-Sin3B and VP16AD-MAD in 293T cells. The format is cell-based. The following applies: 15 μM peptide applied to the cell culture medium. From the text: FIG. 2: SID decoy peptide blocks interactions between Sin3 PAH2 and MAD and interferes with recruitment of members of the Sin3 co-repressor complex. A. GST pull-down of MAD by the Sin3A PAH2 domain is blocked by SID peptide. Sin3A PAH2 domain (amino acids 306-450) was expressed in E. coli as a GST fusion and used in a pull down assay for in vitro interaction with 35S-methionine labeled MAD (left panel) or MAD immunoprecipitated from MDA-MB-231 cell lysates (right panel). 25% of input is shown for in vitro translated MAD and 10% of input for immunoprecipitated MAD (input). Assays were performed using 15 μM Tat-SID or Tat-SID^SCR peptide unless otherwise indicated. […] 293T cells were transfected with GAL4^uas×5-Tk-Luc reporter together with mammalian two-hybrid vectors expressing a fusion of Sin3B with GAL4 DNA binding domain (GAL4^DBD) and fusions of MAD and HDAC1 (columns 5-12 and 14-21, respectively) with VP16 activation domain (VP16^AD), as well as SID expression vectors, as indicated. […]
24 hours prior to transfection, 293T cells were plated at 50-60% confluence on 48-well plates. […] 48 hours post-transfection luciferase activity was measured using the Dual Luciferase assay system (Promega) on a Mithras LB940 plate reader (Berthold Technologies). […]

In assay [3] the target is GAL4 DBD-Sin3B (fusion of Sin3B with GAL4 DNA binding domain) (UniProt P04386). In words: cell-based or functional assay.
In assay [4] the test system is MDA-MB-231 cells transfected with SID. Description: Proliferation assay (MTT) for ERα and RAR activation. The class given is cell-based, human. The note with it: SID-transfected MDA-MB-231; for growth inhibition (MTT): daily for 48 hrs. From the text:
FIG. 5: A. Schematic representations of the promoters and 5′ untranslated regions (5′UTR) of CDH1 and ESR1 used in this study. Positions of CpG dinucleotides are indicated by grey ticks and the transcription initiation sites are represented by black arrows. The relative positions of primer pairs used to PCR amplify immunoprecipitated DNA from ChIP analysis and bisulfite-modified DNA are also indicated. B. H3K4me3 levels on the CDH1 and ESR1 promoter regions increase dramatically in response to SID. ChIP analysis was performed with chromatin from wild type or stably transfected MDA-MB-231 cells as indicated. Cross-linked protein-DNA complexes were immunoprecipitated with an anti-trimethyl H3K4 antibody and amplified by real-time PCR. Results are shown as percentage of input DNA. The RPL30 housekeeping gene is shown as a control. C. Real-time PCR analysis of CDH1 and ESR1 gene expression. Values are shown as molecules per μg total RNA and were derived from the ΔCt between the GAPDH housekeeping gene and the gene of interest. The amount of GAPDH molecules per μg total RNA was determined by absolute quantification. D. The CDH1 and ESR1 promoters undergo demethylation in response to SID. Following bisulfite modification of wild type or stably transfected MDA-MB-231 cells as indicated, specifically amplified PCR products were sequenced using primers corresponding to the promoter/5′UTR of ESR1. Positions of CpG dinucleotides are indicated by grey ticks and the transcription initiation sites are indicated by black arrows. […] Unmethylated CpGs are by represented open circles. CpG positions are shown relative to transcription initiation site. E. Functional assays for ERα and RAR activation. […]
For activation of RARs […] ATRA (all-trans-retinoic acid, pan-RAR agonist) or 100 nM Am580 (retinoibeozoic acid, RARα-specific agonist) was used daily for 48 hours. Cell proliferation was determined by MTT (Thiazolyl Blue Tetrazolium Bromide) colorimetric assay following standard protocols (Invitrogen). The optical density (OD) of reduced MTT was assessed at 570 nm versus 620/630 nm after 4 hr at 37° C. […]

Sequence of GAL4 DBD-Sin3B (fusion of Sin3B with GAL4 DNA binding domain) (P04386 1-147): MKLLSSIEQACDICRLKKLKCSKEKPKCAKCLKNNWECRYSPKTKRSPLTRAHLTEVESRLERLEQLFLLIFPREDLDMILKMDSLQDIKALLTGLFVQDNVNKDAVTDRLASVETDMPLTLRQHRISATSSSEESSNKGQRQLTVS

For the compound “YGRKKRRQGGGEQRARRIMERLLEYNMVADL [scrambled control, reference compound]”, in assay [1], the “decrease in number of colonies with invasive phenotype” value was “did not exert this effect”. For the same compound, in assay [2], the “increase in luciferase activity compared to GAL4 DBD-Sin3B and VP16AD-MAD co-expression” value was “nor addition of scrambled control peptide led to an increase in luciferase activity”. Take “FLAG-tagged SID (6.6 kDa), expressed from pSID (peptide)”: the relative luciferase activity, mammalian two-hybrid with GAL4 DBD-Sin3B and VP16AD-MAD (fold increase) in assay [3] was found to be 2.

Regarding `CC1=C(/C=C/C(C)=C/C=C/C(C)=C/C(=O)O)C(C)(C)CCC1` [ATRA, all-trans-retinoic acid], the “growth inhibition (MTT)” value in assay [4] (1 uM) is “significant growth inhibition”. The compound “TetR-SID fusion (28.4 kDa), expressed from pTHE” registered a relative luciferase activity, mammalian two-hybrid with GAL4 DBD-Sin3B and VP16AD-MAD (fold increase) in assay [3] of 2.

AM580: in assay [4] (100 nM), the “growth inhibition (MTT)” value was “significant growth inhibition”. With `CC/C(=C(\c1ccccc1)c1ccc(OCCN(C)C)cc1)c1ccccc1` [tamoxifen], in assay [4] (2.5 μM tamoxifen plus E2), the “prevention of E2 growth stimulation (MTT)” value was “prevention of E2 growth stimulation”. Turning to “VP16AD-MAD (VP16 activation domain as in-frame fusion with full-length MAD) (from UniProt Q05195 1-221)”, the relative luciferase activity, mammalian two-hybrid (GAL4UASx5-Tk-Luc reporter, 293T cells) (fold decrease) in assay [3] was determined as 5.
